Columns and labels:
[1] = system: L6-GLUT4myc cells transiently transfected with pCDNA5/TO/GFP; assay: Functionality of the T-REx system: tetracycline-inducible GFP expression plasmid; type: cell-based, rat; conditions: doxycycline 1 μg/ml versus absence of doxycycline
Method: FIG. 4: Functionality of the T-Rex system. […]T4myc cells were transiently transfected with […] pCDNA5/TO/GFP. In the absence of doxycycline only a minor number of cells express GFP (A). Addition of doxycycline (1μg/ml) increases the number of GFP positive cells up to about 10 fold (B). L6 cells stably expressing GLUT4myc ([…]T4myc, described in Wang et al. 1998) were subsequently used for the tet-inducible expression of AS160 protein. For this purpose the T-REx system from Invitrogen was used. The regulatory plasmid in this system controls the constitutive expression of the tet-repressor (tet-R) under the control of a CMV (cytomegalovirus) promoter. In the absence of tetracyline (or doxycycline) the repressor binds to specific tetracycline-operator sequences (TetO2) and thereby represses expression. Addition of tetracycline (or doxycycline) induces expression of the protein of interest. To allow a stable integration of the tet-system in […]T4myc cells the tet-repressor was islolated from pCDNA3.1 (+)/TR (Invitrogen) and cloned into the Nhel and Notl sites of pIRESpuro2 (FIG. 3). Subsequently pIRESpuro2/TR was transfected into […]T4myc cells. Clones stably expressing the regulatory plasmid were selected with 0.5 μg/ml puromycin (InvivoGen). Functionality of the tet-repressor was controlled with a tetracycline-inducible GFP expression plasmid (pCDNA5/TO-GFP). […]

[2] = system: L6-GLUT4myc cells containing AS160; assay: Uptake of 2-deoxyglucose in response to insulin (Cytostar-T scintillating microplates); type: cell-based, rat; conditions: FIG. 6
Method: For all examples the L6-GLUT4myc cells containing AS160 were grown in MEMα (PAN) supplemented with 10% fetal calf serum (FCS) (PAA, tet-free), 2 μg/ml blasticidin (Calbiochem), 0.5 μg/ml puromycin (InvivoGen), 200 μg/ml hygromycin (Invitrogen). Expression of AS160 was induced with 1 μg/ml doxycyclin (Sigma). L6-wildtype (wt) (ATCC: CRL-1458) cells were grown in MEMα+GlutaMax (Gibco) supplemented with 10% FCS (PAA, tet-free) and 1% penicillin/streptomycin (PAA). L6-GLUT4myc cells were grown in MEMα+GlutaMax (Gibco) supplemented with 10% FCS (PAA, tet-free), 1% penicillin/streptomycin (PAA) and 2 μg/ml blasticidin (Calbiochem). Expression of AS160 was induced by inbubation of the cells for 48 hours with 1 μg/ml doxycycline (Sigma). All cells were grown at 37° C. and 5% CO2 L6-GLUT4myc cells containing AS160 were incubated in starve medium (MEMα) 3-4 hours prior to each experiment.
To examine glucose uptake of the cells, the respective cells were plated in 96 well Cytostar-T scintillating microplates (Amersham/GE). After 48 hours cells were serum-starved (3-4 hours) and treated with the indicated Insuman (human insulin) concentartions a for 20 minutes. […] Nonspecific uptake was determined in the presence of 40 μM cytochalasin B (Calbiochem). […] Uptake of 2-deoxyglucose is measured as counts per […] and presented as fold over basal. […]

| Molecule | Increase of the number of GFP positive cells [1] | Uptake of 2-deoxyglucose, fold over basal ([2]; with expression of AS160 (isoform 1, doxycycline-induced), 100 nM insulin, 20 minutes) | Uptake of 2-deoxyglucose, fold over basal (maximum) ([2]; without expression of AS160 (isoform 1), insulin 20 minutes) |
| --- | --- | --- | --- |
| C[C@H]1c2cccc(O)c2C(=O)C2=C(O)[C@]3(O)C(=O)C(C(N)=O)=C(O)[C@@H](N(C)C)[C@@H]3[C@@H](O)[C@@H]21 [doxycycline] | about 10 fold | – | – |
| insulin: Insuman (human insulin) | – | about 6 fold | about 4 fold |
